In US20260049084A1, “ENPP1 MODULATORS AND PRODUCTS AND USES THEREOF” (Gossamer Bio Services, Inc., priority 2022, published 2026):

Legend:
[1] = target: Recombinant human ENPP1 protein (Homo sapiens (Human), UniProt P22413); assay: ENPP1 cGAMP Biochemical Assay; conditions: 0.5 nM ENPP1, 1000 nM 2′3′-cGAMP substrate, TR-FRET
Experimental: ENPP1 cGAMP Biochemical Assay
Compounds were added to 384 well Proxiplate (PerkinElmer, Waltham MA) at 100 nl/well from DMSO stocks using Echo (Labcyte, San Jose CA). Recombinant human ENPP1 protein (R&D Systems, Minneapolis MN) was prepared in assay buffer (50 mM Tris pH7.5, 1 mM TCEP pH7.0, 2 mM MgCl2 and 0.005% Tween20) and added at 10 μl/well. The plate was sealed, centrifuged at 1000 rpm for 1 minute and incubated at room temperature for 30 minutes before 5 μl substrate 2′3′-cGAMP (R&D Systems, Minneapolis MN) in assay buffer was added to each well to a final concentration of 0.5 nM ENPP1 and 1000 nM 2′3′-cGAMP. The plate was sealed and centrifuged at 1000 rpm for 1 minute again. After incubation at 25° C. for 60 minutes, Terbium labelled AMP/GMP antibody and AMP/GMP HiLyte647 Tracer (BellBrook Labs, Fitchburg WI) in detection buffer (50 mM Tris pH7.5, 20 mM EDTA and 0.1% Prionex) were added to the reaction mixture to a final concentration of 2 nM (5 μl/well). The assay plate was incubated at room temperature for 120 minutes. TR-FRET signal was detected using Envision (PerkinElmer, Waltham MA).

[2] = target: Recombinant human ENPP3 protein (Homo sapiens (Human), UniProt O14638); assay: ENPP3 cGAMP Biochemical Assay; conditions: 70.5 nM ENPP3, 120 μM 2′3′-cGAMP substrate, TR-FRET
Chain of Recombinant human ENPP3 protein (O14638 whole entry): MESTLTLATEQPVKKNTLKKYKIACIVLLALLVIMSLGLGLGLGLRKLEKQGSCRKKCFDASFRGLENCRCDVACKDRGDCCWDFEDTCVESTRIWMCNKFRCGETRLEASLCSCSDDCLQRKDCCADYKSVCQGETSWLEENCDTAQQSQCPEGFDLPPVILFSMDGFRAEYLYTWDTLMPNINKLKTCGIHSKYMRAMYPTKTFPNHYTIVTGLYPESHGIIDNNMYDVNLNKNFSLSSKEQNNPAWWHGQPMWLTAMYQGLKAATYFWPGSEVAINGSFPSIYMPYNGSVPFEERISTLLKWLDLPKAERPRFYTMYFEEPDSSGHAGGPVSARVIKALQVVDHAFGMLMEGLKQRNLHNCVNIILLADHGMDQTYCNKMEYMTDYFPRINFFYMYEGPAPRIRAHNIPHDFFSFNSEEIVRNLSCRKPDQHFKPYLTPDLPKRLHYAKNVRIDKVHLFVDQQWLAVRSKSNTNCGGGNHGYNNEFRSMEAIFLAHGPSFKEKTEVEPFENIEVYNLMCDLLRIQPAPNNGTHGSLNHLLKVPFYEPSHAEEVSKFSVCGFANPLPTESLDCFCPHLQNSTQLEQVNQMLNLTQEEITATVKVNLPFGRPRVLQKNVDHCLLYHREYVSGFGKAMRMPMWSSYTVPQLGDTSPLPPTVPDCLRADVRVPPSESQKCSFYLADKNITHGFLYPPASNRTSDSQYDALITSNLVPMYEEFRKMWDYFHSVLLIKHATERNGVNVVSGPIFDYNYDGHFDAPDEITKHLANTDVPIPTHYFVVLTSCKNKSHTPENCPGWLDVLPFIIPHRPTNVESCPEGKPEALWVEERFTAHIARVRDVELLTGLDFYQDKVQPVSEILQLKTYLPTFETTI
Experimental: ENPP3 cGAMP Biochemical Assay
Compounds were added to 384 well Proxiplate (PerkinElmer, Waltham MA) at 100 nl/well from DMSO stocks using Echo (Labcyte, San Jose CA). Recombinant human ENPP3 protein (Acro Biosystems, Newwark DE) was prepared in assay buffer (50 mM Tris pH7.5, 1 mM TCEP pH7.0, 2 mM MgCl2, 2 mM CaCl2), 2 mM ZnCl2 and 0.005% Tween20) and added at 2 μl/well. The plate was sealed, centrifuged at 1000 rpm for 1 minute and incubated at room temperature for 30 minutes before 2 μl substrate 2′3′-cGAMP (R&D Systems, Minneapolis MN) in assay buffer was added to each well to a final concentration of 70.5 nM ENPP3 and 120 μM 2′3′-cGAMP. The plate was sealed and centrifuged at 1000 rpm for 1 minute again. After incubation at 25° C. for 60 minutes, Terbium labelled AMP/GMP antibody and AMP/GMP HiLyte647 Tracer (BellBrook Labs, Fitchburg WI) in detection buffer (50 mM Tris pH7.5, 20 mM EDTA and 0.1% Prionex) were added to the reaction mixture to a final concentration of 475 nM and 3 nM respectively. The assay plate was incubated at room temperature for 120 minutes. TR-FRET signal was detected using Envision (PerkinElmer, Waltham MA).

Chain of Recombinant human ENPP1 protein (P22413 whole entry): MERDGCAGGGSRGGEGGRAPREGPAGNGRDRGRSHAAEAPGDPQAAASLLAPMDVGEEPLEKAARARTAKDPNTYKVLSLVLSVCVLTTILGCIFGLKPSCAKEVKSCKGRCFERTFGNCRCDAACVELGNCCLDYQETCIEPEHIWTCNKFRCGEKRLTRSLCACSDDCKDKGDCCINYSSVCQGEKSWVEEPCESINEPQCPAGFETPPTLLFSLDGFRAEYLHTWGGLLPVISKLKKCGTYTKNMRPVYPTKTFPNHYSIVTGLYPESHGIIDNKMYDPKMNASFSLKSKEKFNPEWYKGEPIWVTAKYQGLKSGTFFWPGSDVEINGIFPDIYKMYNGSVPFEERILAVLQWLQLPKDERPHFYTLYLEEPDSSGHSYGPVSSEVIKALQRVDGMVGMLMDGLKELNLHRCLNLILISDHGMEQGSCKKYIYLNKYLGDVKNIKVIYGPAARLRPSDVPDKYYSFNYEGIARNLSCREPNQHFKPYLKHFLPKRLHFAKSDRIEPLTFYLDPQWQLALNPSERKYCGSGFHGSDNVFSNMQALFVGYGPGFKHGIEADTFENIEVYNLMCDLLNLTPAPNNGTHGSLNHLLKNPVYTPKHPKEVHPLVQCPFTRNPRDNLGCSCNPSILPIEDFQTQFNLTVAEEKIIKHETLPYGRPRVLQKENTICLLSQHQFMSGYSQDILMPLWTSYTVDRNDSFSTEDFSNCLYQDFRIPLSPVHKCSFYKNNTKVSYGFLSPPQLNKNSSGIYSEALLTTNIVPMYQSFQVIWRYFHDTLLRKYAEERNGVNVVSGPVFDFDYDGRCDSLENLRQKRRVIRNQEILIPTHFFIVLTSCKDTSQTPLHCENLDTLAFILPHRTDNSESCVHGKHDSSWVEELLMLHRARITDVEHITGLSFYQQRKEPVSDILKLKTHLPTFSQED

Row | Compound | IC50 [1] [nM] | IC50 [2] [nM]
1 | C#CCn1nc(Cl)c2c(NCc3ccc(S(=N)(=O)NC)cc3)ccnc21 (stereo in doubt) [Compound 10B, (R)-4-(((3-chloro-1-(prop-2-yn-1-yl)-1H-pyrazolo[3,4-b]pyridin-4-yl)amino)methyl)-N-methylbenzenesulfonimidamide] | < 10 | ≥ 1000
2 | C#CCn1nc(Cl)c2c(NCc3ccc(S(=N)(=O)NC)cc3)ccnc21 (stereo in doubt) [Compound 10C, (S)-4-(((3-chloro-1-(prop-2-yn-1-yl)-1H-pyrazolo[3,4-b]pyridin-4-yl)amino)methyl)-N-methylbenzenesulfonimidamide] | < 10 | 10 to 100
3 | CCn1nc(Cl)c2c(NCC3CCN(S(=N)(N)=O)CC3)ccnc21 (centres unmarked) [Compound 1C, 4-(((3-chloro-1-ethyl-1H-pyrazolo[3,4-b]pyridin-4-yl)amino)methyl)piperidine-1-sulfonimidamide] | 10 to 100 | ≥ 1000
4 | CCn1ncc2c(NCc3ccc(S(=N)(N)=O)cc3)cc(-c3ncc[nH]3)nc21 (centres unmarked) [Compound 2C, 4-(((1-ethyl-6-(1H-imidazol-2-yl)-1H-pyrazolo [3,4-b]pyridin-4-yl)amino)methyl)benzene sulfonimidamide] | 100 to 1000 | 100 to 1000
5 | CCn1ncc2c(NCc3ccc(S(=N)(N)=O)cc3)ncnc21 (centres unmarked) [Compound 2D, 4-(((1-ethyl-1H-pyrazolo[3,4-d]pyrimidin-4-yl)amino)methyl)benzenesulfonimidamide] | 10 to 100 | ≥ 1000
6 | C#CCn1nc(Cl)c2c(NCc3c(F)cc(S(N)(=O)=NC)cc3F)ccnc21 (centres unmarked) [Compound 3B, 4-(((3-chloro-1-(prop-2-yn-1-yl)-1H-pyrazolo[3,4-b]pyridin-4-yl)amino)methyl)-3,5-difluoro-N-methylbenzenesulfonimidamide] | < 10 | 100 to 1000
7 | C#CCn1nc(Cl)c2c(N(C)Cc3ccc(S(N)(=O)=NC)cc3)ccnc21 (centres unmarked) [Compound 3C, 4-(((3-chloro-1-(prop-2-yn-1-yl)-1H-pyrazolo[3,4-b]pyridin-4-yl)(methyl)amino)methyl)-N′-methylbenzenesulfonimidamide] | < 10 | 100 to 1000
8 | CCn1ncc2c(NCc3ccc(S(N)(=O)=NC#N)cc3)ccnc21 (centres unmarked) [Compound 3D, N′-cyano-4-(((1-ethyl-1H-pyrazolo[3,4-b]pyridin-4-yl)amino)methyl)benzenesulfonimidamide] | < 10 | 100 to 1000
9 | CCn1ncc2c(NCc3ccc([S@@](N)(=O)=NC)cc3)ccnc21 [Compound 3E, (S)-4-(((1-ethyl-1H-pyrazolo[3,4-b]pyridin-4-yl)amino)methyl)-N′-methylbenzenesulfonimidamide] | < 10 | ≥ 1000
10 | CCn1ncc2c(NCc3ccc([S@](N)(=O)=NC)cc3)ccnc21 [Compound 3F, (R)-4-(((1-ethyl-1H-pyrazolo[3,4-b]pyridin-4-yl)amino)methyl)-N′-methylbenzenesulfonimidamide] | 100 to 1000 | ≥ 1000
11 | CCn1ncc2c(Nc3ccc(S(N)(=O)=NCC4CC4)cc3)ccnc21 (centres unmarked) [Compound 5A, N′-(cyclopropylmethyl)-4-((1-ethyl-1H-pyrazolo [3,4-b]pyridin-4-yl)amino) benzenesulfonimidamide] | 10 to 100 | 100 to 1000
12 | CCn1ncc2c(Nc3ccc(S(N)(=O)=NC)cc3)ccnc21 (centres unmarked) [Compound 5B, 4-((1-ethyl-1H-pyrazolo[3,4-b]pyridin-4-yl)amino)-N′-methylbenzenesulfonimidamide] | 10 to 100 | ≥ 1000
13 | CCn1nc(Cl)c2c(Nc3ccc(S(=N)(N)=O)cc3)ccnc21 (centres unmarked) [Compound 5C, 4-((3-chloro-1-ethyl-1H-pyrazolo[3,4-b]pyridin-4-yl)amino)benzenesulfonimidamide] | 10 to 100 | 100 to 1000
14 | CCn1nc(Cl)c2c(Nc3ccc(S(N)(=O)=NC)cc3)ccnc21 (centres unmarked) [Compound 5D, 4-((3-chloro-1-ethyl-1H-pyrazolo[3,4-b]pyridin-4-yl)amino)-N′-methylbenzenesulfonimidamide] | < 10 | 100 to 1000
15 | CCN=S(N)(=O)c1ccc(Nc2ccnc3c2c(Cl)nn3CC)cc1 (centres unmarked) [Compound 5E, 4-((3-chloro-1-ethyl-1H-pyrazolo[3,4-b]pyridin-4-yl)amino)-N′-ethylbenzenesulfonimidamide] | < 10 | 100 to 1000
16 | CCn1nc(Cl)c2c(Nc3ccc(S(N)(=O)=NCC4CC4)cc3)ccnc21 (centres unmarked) [Compound 5F, 4-((3-chloro-1-ethyl-1H-pyrazolo[3,4-b]pyridin-4-yl)amino)-N′-(cyclopropylmethyl)benzene sulfonimidamide] | < 10 | 100 to 1000
17 | CCn1nc(Cl)c2c(Nc3ccc(S(N)(=O)=NC#N)cc3)ccnc21 (centres unmarked) [Compound 5G, 4-((3-chloro-1-ethyl-1H-pyrazolo[3,4-b]pyridin-4-yl)amino)-N′-cyanobenzenesulfonimidamide] | 10 to 100 | ≥ 1000
18 | CCn1nc(Cl)c2c(Nc3ccc(S(N)(=O)=NC(C)C)cc3)ccnc21 (centres unmarked) [Compound 5H, 4-((3-chloro-1-ethyl-1H-pyrazolo[3,4-b]pyridin-4-yl)amino)-N′-isopropylbenzenesulfonimidamide] | < 10 | 100 to 1000
19 | CCn1nc(Cl)c2c(Nc3ccc(S(N)(=O)=NC4CC4)cc3)ccnc21 (centres unmarked) [Compound 5I, 4-((3-chloro-1-ethyl-1H-pyrazolo[3,4-b]pyridin-4-yl)amino)-N′-cyclopropylbenzenesulfonimidamide] | < 10 | ≥ 1000
20 | C#CCn1nc(Cl)c2c(NCc3ccc([S@](C)(=N)=O)cc3)ccnc21 [Compound 6A, (R)-(4-(((3-chloro-1-(prop-2-yn-1-yl)-1H-pyrazolo[3,4-b]pyridin-4-yl)amino)methyl)phenyl)(imino)(methyl)-λ^6-sulfanone] | 10 to 100 | ≥ 1000
21 | C#CCn1nc(Cl)c2c(NCc3ccc([S@@](C)(=N)=O)cc3)ccnc21 [Compound 6B, (S)-(4-(((3-chloro-1-(prop-2-yn-1-yl)-1H-pyrazolo[3,4-b]pyridin-4-yl)amino)methyl)phenyl)(imino)(methyl)-λ^6-sulfanone] | < 10 | 10 to 100
22 | CCn1ncc2c(OCc3ccc(S(N)(=O)=NC)cc3)ccnc21 (centres unmarked) [Compound 7A, 4-(((1-ethyl-1H-pyrazolo[3,4-b]pyridin-4-yl)oxy)methyl)-N′-methylbenzenesulfonimidamide] | 100 to 1000 | ≥ 1000
23 | CS(=N)(=O)c1ccc(COc2ccnc3c2c(Cl)nn3CC#N)cc1 (centres unmarked) [Compound 8A, 2-(3-chloro-4-((4-(S-methylsulfonimidoyl)benzyl)oxy)-1H-pyrazolo[3,4-b]pyridin-1-yl) acetonitrile] | < 10 | 100 to 1000
24 | C#CCn1nc(Cl)c2c(N(C)Cc3ccc(S(C)(=N)=O)cc3)ccnc21 (centres unmarked) [Compound 9A, (4-(((3-chloro-1-(prop-2-yn-1-yl)-1H-pyrazolo [3,4-b]pyridin-4-yl)(methyl)amino)methyl)phenyl)(imino)(methyl)-λ^6-sulfanone] | < 10 | 10 to 100
25 | C#CCn1nc(Cl)c2c(N(C)Cc3ccc([S@](C)(=N)=O)cc3)ccnc21 [Compound 9B, (R)-(4-(((3-chloro-1-(prop-2-yn-1-yl)-1H-pyrazolo[3,4-b]pyridin-4-yl)(methyl)amino)methyl)phenyl)(imino)(methyl)-λ^6-sulfanone] | < 10 | 10 to 100
26 | CCn1ncc2c(NCC3CCN([S@@](C)(=N)=O)CC3)ccnc21 [Compound 14G, (R)-1-ethyl-N-((1-(S-methylsulfonimidoyl)piperidin-4-yl)methyl)-1H-pyrazolo[3,4-b]pyridine-4-amine] | – | ≥ 1000
27 | CCn1ncc2c(NCC3CCN([S@](C)(=N)=O)CC3)ccnc21 [Compound 14H, (S)-1-ethyl-N-((1-(S-methylsulfonimidoyl)piperidin-4-yl)methyl)-1H-pyrazolo[3,4-b]pyridin-4-amine] | – | ≥ 1000
28 | CN=[S@](N)(=O)N1CCC(CNc2ccnc3c2c(Cl)nn3CC#N)CC1 [Compound 15G, (S)-4-(((3-chloro-1-(cyanomethyl)-1H-pyrazolo[3,4-b]pyridin-4-yl)amino)methyl)-N′-methylpiperidine-1-sulfonimidamide] | – | 100 to 1000
